Here are results for 18 molecules from patent US20210087206A1, “MACROCYCLIC KINASE INHIBITORS AND THEIR USE” (TURNING POINT THERAPEUTICS, INC., priority 2017, published 2021).

Common to all, as to assay: Cell proliferation assay (CellTiter-Glo)
What all share (format): cell-based
(In general: Cellular ATP, detected with luciferase, serves as a proxy for viable cell number.)

Test [1] deals with KM12 (TPM3-TRKA). The following applies: Homo sapiens, anti-cell proliferation, 72 hours. In a few lines:
(§1)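 Cells seeded 24 h, then exposed to compounds for 72 h at 37° C., 5% CO2. Proliferation read by CellTiter-Glo luminescent ATP detection; IC50 from dose-response fits.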

Test [2] has as its system KG-1 cell (OP2-FGFR1). The note with it: Homo sapiens, anti-cell proliferation, 72 hours. In a few lines:
as §1

Test [3] has as its target T1, BaF3 EML4-ALK (Homo sapiens, UniProt Q9UM73).
T1 construct: The EML4-ALK gene (variant 1) was synthesized at GenScript and cloned into pCDH-CMV-MCS-EF1-Puro plasmid (System Biosciences, Inc); fused on or other part: EML4 N-terminal part (variant 1: exons 1-13, with the coiled-coil that oligomerises the fusion) fused to the intracellular part of ALK, which contains the kinase domain; Q9HC35 (Echinoderm microtubule-associated protein-like 4)
The following applies: anti-cell proliferation, 72 hours. In a few lines:
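Ba/F3 cells were lentivirally transduced with EML4-ALK variant 1 and selected for puromycin resistance and IL-3-independent growth. Proliferation was measured by CellTiter-Glo ATP luminescence to give IC50.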

T1 sequence (Q9UM73 whole entry, stated change not applied, the tested form may be a part): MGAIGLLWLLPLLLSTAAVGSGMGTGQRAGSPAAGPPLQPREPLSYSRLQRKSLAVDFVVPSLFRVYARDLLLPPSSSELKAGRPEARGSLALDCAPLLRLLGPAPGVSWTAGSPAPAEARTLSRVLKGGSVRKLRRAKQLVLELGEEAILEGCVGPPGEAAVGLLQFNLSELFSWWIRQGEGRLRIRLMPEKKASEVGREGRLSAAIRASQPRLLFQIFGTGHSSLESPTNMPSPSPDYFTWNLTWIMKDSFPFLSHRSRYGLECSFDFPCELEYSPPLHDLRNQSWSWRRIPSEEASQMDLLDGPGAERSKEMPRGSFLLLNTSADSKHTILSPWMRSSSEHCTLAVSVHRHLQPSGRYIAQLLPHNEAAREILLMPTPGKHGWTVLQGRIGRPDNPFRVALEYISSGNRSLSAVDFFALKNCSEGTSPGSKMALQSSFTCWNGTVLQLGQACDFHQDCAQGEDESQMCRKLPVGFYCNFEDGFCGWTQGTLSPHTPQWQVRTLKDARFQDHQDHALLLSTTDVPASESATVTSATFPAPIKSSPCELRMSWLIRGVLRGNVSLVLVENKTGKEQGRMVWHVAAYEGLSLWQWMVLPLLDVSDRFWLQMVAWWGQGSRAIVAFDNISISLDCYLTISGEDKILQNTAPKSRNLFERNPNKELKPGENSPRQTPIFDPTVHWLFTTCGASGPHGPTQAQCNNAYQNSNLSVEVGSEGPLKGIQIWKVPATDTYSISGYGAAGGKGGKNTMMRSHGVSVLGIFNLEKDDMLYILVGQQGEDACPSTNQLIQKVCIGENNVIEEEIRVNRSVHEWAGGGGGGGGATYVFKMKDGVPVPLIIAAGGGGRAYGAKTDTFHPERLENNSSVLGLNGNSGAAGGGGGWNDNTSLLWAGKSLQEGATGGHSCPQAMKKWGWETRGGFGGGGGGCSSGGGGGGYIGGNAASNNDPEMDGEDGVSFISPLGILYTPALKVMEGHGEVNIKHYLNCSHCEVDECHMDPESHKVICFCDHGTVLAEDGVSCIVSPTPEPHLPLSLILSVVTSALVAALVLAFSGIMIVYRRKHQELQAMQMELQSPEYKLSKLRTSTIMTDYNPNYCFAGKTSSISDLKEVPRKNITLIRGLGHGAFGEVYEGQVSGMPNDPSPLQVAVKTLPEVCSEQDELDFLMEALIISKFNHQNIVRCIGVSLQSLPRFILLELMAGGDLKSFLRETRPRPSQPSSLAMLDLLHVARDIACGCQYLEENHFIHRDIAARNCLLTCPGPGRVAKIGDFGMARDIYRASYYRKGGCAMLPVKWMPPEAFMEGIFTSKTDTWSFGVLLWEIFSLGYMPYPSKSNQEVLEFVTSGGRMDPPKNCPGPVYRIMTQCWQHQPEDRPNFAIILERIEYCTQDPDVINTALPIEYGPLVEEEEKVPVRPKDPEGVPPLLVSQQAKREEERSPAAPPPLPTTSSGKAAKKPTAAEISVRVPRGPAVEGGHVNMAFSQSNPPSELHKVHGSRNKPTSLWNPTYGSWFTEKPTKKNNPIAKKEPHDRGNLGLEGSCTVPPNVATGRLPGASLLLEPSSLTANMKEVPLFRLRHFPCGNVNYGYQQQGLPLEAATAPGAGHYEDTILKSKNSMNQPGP

As to `C[C@@H]1COc2ncc(F)cc2CN2c3nc4c(cnn4cc3OC[C@H]2c2ccccc2)C(=O)N1` [Compound 46, (4R,13R)-8-fluoro-13-methyl-4-phenyl-3,4,13,14-tetrahydro-6H-18,1-(metheno)[1,4]oxazino[3,4-i]pyrazolo[4,3-f]pyrido[3,2-1][1,4,8,10]oxatriazacyclotridecin-15(12H)-one], the values for the IC50 in test [1], in test [2] and in test [3] were less than 0.2 nM, 0.2 nM and 1060 nM, respectively.
As for `C[C@@H]1COc2cn3ncc4c3nc2N1Cc1cc(F)cnc1OCC1(CCC1)CNC4=O` [Compound 47, (16′R)-12′-fluoro-16′-methyl-4′H,5′H,6′H,8′H,14′H,16′H,17′H-spiro[cyclobutane-1,7′-[9,18]-dioxa[1,2,5,10,15,20]hexaaza-[1,19](metheno)[1,4]oxazino-[4,3-e]pyrazolo[3,4-h]pyrido-[2,3-b][1,5,7,11]oxatriazacyclo-tetradecin]-4′-one], the IC50 (in general, the midpoint of a concentration-inhibition curve) was less than 0.2 nM in test [1], 24.2 nM in test [2] and 68 nM in test [3].
For the molecule `C[C@@H]1COc2cn3ncc4c3nc2N1Cc1cc(F)cnc1OCC[C@H](C)NC4=O` [Compound 48, (6S,16R)-12-fluoro-6,16-dimethyl-5,6,7,8,16,17-hexahydro-4H,14H-1,19-(metheno)[1,4]oxazino[4,3-e]pyrazolo[3,4-h]pyrido[2,3-b] [1,5,7,11]oxatriazacyclotetra-decin-4-one], the IC50 in test [1] is less than 0.2 nM; in test [2] it was 12.9 nM; in test [3], 22.1 nM.
Turning to `C[C@@H]1COc2cn3ncc4c3nc2N1Cc1cc(F)cnc1O[C@H]1CCC[C@H]1NC4=O` [Compound 49, (8R,15aS,18aR)-12-fluoro-8-methyl-7,8,15a,16,17,18,18a, 19-octahydro-10H,20H-3,5-(metheno)cyclopenta[b][1,4]-oxazino[3,4-i]pyrazolo[4,3-f]-pyrido[3,2-l][1,4,8,10]-oxatriazacyclotridecin-20-one], the IC50 in test [1] was less than 0.2 nM; in test [2], 9.5 nM; in test [3] it was 55.1 nM.
Take `C[C@@H]1COc2cn3ncc4c3nc2N1Cc1cc(F)cnc1OCC1(CC(F)(F)C1)NC4=O` [Compound 50, (4′R)-3,3,8′-trifIuoro-4′-methyl-3′H,4′H,6′H,12′H,14′H,15′H-spiro[cyclobutane-1,13′-[2,11]-dioxa[5,10,14,17,18,19]hexaaza-[18,1](metheno)[1,4]oxazino[3,4-i][4,3-f]pyrido[3,2-l][1,4,8,10]-oxatriazacyclotridecin]-15′-one]: the IC50 in test [1] was less than 0.2 nM; in test [2] it was 412 nM; in test [3] it was 583 nM.
`C[C@@H]1COc2cn3ncc4c3nc2N1Cc1cc(F)cnc1OC[C@H](C)NC4=O` [Compound 51, (4R,13S)-8-fluoro-4,13-dimethyl-3,4,13,14-tetrahydro-6H-18,1-(metheno)[1,4]oxazino[3,4-i]-pyrazolo[4,3-f]pyrido[3,2-l] [1,4,8,10]oxatriazacyclotridecin-15(12H)-one]: the IC50 in test [1] was less than 0.2 nM; in test [2], 101 nM; in test [3], 233 nM.
As to `C[C@@H]1COc2cn3ncc4c3nc2N1Cc1cc(F)cnc1OCC1(CCCC1)NC4=O` [Compound 52, (4'R)-8'-fluoro-4'-methyl-3'H,4'H,6'H,12'H,14'H,15'H-spiro[cyclopentane-1,13'-[2,11]-dioxa[5,10,14,17,18,19]hexaaza-[18,1](metheno)[1,4]oxazino[3,4-i]pyrazolo[4,3-f]pyrido[3,2-l] [1,4,8,10]oxatriazacyclotridecin]-15’-one], the IC50 is less than 0.2 nM in test [1], 359 nM in test [2] and 276 nM in test [3].
For the molecule `C[C@@H]1COc2cn3ncc4c3nc2N1Cc1cc(F)cnc1O[C@H]1CCC[C@@H]1NC4=O` [Compound 53, (8R,15aS,18aS)-12-fluoro-8-methyl-7,8,15a,16,17,18,18a, 19-octahydro-10H,20H-3,5-(metheno)cyclopenta[b][1,4]-oxazino[3,4-i]pyrazolo[4,3-f]-pyrido[3,2-l][1,4,8,10]oxatriaza-cyclotridecin-20-one], the IC50 in test [1] was less than 0.2 nM; in test [2], 183 nM; in test [3], 113 nM.
On the same counts, the results for `C[C@@H]1COc2cn3ncc4c3nc2N1Cc1cc(F)cnc1OC[C@@H](O)CNC4=O` [Compound 54, (7S,16R)-12-fluoro-7-hydroxy-16-methyl-5,6,7,8,16,17-hexa-hydro-4H,14H-1,19-(metheno)-[1,4]oxazino[4,3-e]pyrazolo-[3,4-h]pyrido[2,3-b][1,5,7,11]-oxatriazacyclotetradecin-4-one] are less than 0.2 nM, 678 nM and 661 nM.
Regarding `C[C@@H]1COc2cn3ncc4c3nc2N1Cc1cc(F)cnc1OCC(C)(C)CNC4=O` [Compound 55, (16R)-12-fluoro-7,7,16-trimethyl-5,6.7,8,16,17-hexahydro-4H,14H-1,19-(metheno)[1,4]oxazino[4,3-e]pyrazolo[3,4-h]pyrido[2,3-b] [1,5,7,11]oxatriazacyclotetradecin-4-one], the values for the IC50 in test [1], in test [2] and in test [3] were less than 0.2 nM, 4.2 nM and 14.8 nM, respectively.
Regarding `C[C@H]1CNC(=O)c2cnn3cc4c(nc23)N(Cc2cc(F)cnc2O1)C1(CCC1)CO4` [Compound 56, (12′S)-8′-fluoro-12′-methyl-3′H,6′H,12′H,13′H,14′H,15′H-spiro[cyclobutane-1,4′-[2,11]-dioxa[5,10,14,17,18,19]-hexaaza[18,1](metheno)[1,4]-oxazino[3,4-i]pyrazolo[4,3-f]-pyrido[3,2-l][1,4,8,10]oxatriaza-cyclotridecin]-15′-one], the IC50 in test [1] was less than 0.2 nM; in test [2], 3000 nM; in test [3] it was 919 nM.
As for `C[C@H]1CNC(=O)c2cnn3cc4c(nc23)N(Cc2cc(F)cnc2O1)C1(CCCC1)CO4` [Compound 57, (12′S)-8′-fluoro-12′-methyl-3′H,6′H,12′H,13′H,14′H,15′H-spiro[cyclopentane-1,4′-[2,11]-dioxa[5,10,14,17,18,19]hexaaza-[18,1](metheno)[1,4]oxazino[3,4-i]pyrazolo[4,3-f]pyrido[3,2-l] [1,4,8,10]oxatriazacyclotridecin]-15′-one], the IC50 in test [1] is less than 0.2 nM; in test [2], 4000 nM; in test [3], 2210 nM.
The corresponding values for `C[C@@H]1COc2ncc(F)cc2CN2c3nc4c(cnn4cc3OCC23CCC3)C(=O)N1` [Compound 58, (13′R)-8′-fluoro-13′-methyl-3′H,6′H,12′H,13′H,14′H,15′H-spiro[cyclobutane-1,4′-[2,11]-dioxa[5,10,14,17,18,19]hexaaza-[18,1](metheno)[1,4]oxazino-[3,4-i]pyrazolo[4,3-f]pyrido-[3,2-l][1,4,8,10]oxatriazacyclo-tridecin]-15′-one] are less than 0.2 nM, 1620 nM and 203 nM.
The corresponding values for `C[C@@H]1COc2ncc(F)cc2CN2c3nc4c(cnn4cc3OCC23CCCC3)C(=O)N1` [Compound 59, (13′R)-8′-fluoro-13′-methyl-3′H,6′H,12′H,13′H,14′H,15′H-spiro[cyclopentane-1,4′-[2,11]-dioxa[5,10,14,17,18,19]hexaaza-[18,1](metheno)[1,4]oxazino-[3,4-i]pyrazolo[4,3-f]pyrido-[3,2-l][1,4,8,10]oxatriazacyclo-tridecin]-15′-one] are less than 0.2 nM, 2000 nM and 1020 nM.
Regarding `C[C@@H]1COc2ncc(F)cc2CN2c3nc4c(cnn4cc3OC[C@H]2C(N)=O)C(=O)N1` [Compound 60, (4S,13R)-8-fluoro-13-methyl-15-oxo-3,4,12,13,14,15-hexahydro-6H-18,1-(metheno)[1,4]oxazino[3,4-i]pyrazolo[4,3-f]pyrido[3,2-l][1,4,8,10]oxatriazacyclotridecine-4-carboxamide], the values for the IC50 in test [1], in test [2] and in test [3] were 51.2 nM, more than 10000 nM and more than 10000 nM, respectively.
Turning to `C[C@@H]1COc2ncc(F)cc2CN2C[C@H](O)COc3cn4ncc(c4nc32)C(=O)N1` [Compound 61, (4S,14R)-9-fluoro-4-hydroxy-14-methyl-4,5,14,15-tetrahydro-3H,7H-19,1-(methano)[1,4]-oxazepino[3,4-i]pyrazolo[4,3-f]-pyrido[3,2-l][1,4,8,10]oxatriaza-cyclotridecin-16(13H)-one], the IC50 in test [1] was determined as 482 nM; in test [2], 482 nM; in test [3], 4000 nM.
`C[C@@H]1COc2ncc(F)cc2CN2c3nc4c(cnn4cc3OCC23CC(F)(F)C3)C(=O)N1` [Compound 63, (13′R)-3,3,8′-trifluoro-13′-methyl-3′H,6′H,12′H,13′H,14′H,15′H-spiro[cyclobutane-1,4′-[2,11]-dioxa[5,10,14,17,18,19]hexaaza-[18,1](metheno)[1,4]oxazino[3,4-i]pyrazolo[4,3-f]pyrido[3,2-l] [1,4,8,10]oxatriazacyclotridecin]-15′-one]: the IC50 in test [1] is less than 0.2 nM; in test [2], 10000 nM; in test [3], 576 nM.
Regarding `C[C@H]1CNC(=O)c2cnn3cc4c(nc23)N(Cc2cc(F)cnc2O1)C1(CO4)CC(F)(F)C1` [Compound 64, (12′S)-3,3,8′-trifluoro-12′-methyl-3′H,6′H,12′H,13′H,14′H,15′H-spiro[cyclobutane-1,4′-[2,11]-dioxa[5,10,14,17,18,19]hexaaza-[18,1](metheno)[1,4]oxazino[3,4-i]pyrazolo[4,3-f]pyrido[3,2-l] [1,4,8,10]oxatriazacyclotridecin]-15′-one], the IC50 in test [1] is less than 0.2 nM; in test [2], 10000 nM; in test [3] it was 1230 nM.
